# Test results reported in ChEMBL document CHEMBL5331056 (Eur J Med Chem, 2022).
# What was measured:
# PC-3 = test: Anticancer activity against human PC-3 cells assessed as cell growth inhibition measured after 72 hrs by MTT assay; assay type: functional, cell-based; conditions: PC-3, 72 h
# MCF7 = test: Anticancer activity against human MCF7 cells assessed as cell growth inhibition measured after 72 hrs by MTT assay; assay type: functional, cell-based; conditions: MCF7, 72 h
# [1] = Antioxidant activity assessed as DPPH radical scavenging activity measured after 1 hrs; assay type: functional
# [2] = Antioxidant activity assessed as DPPH radical scavenging activity measured after 30 mins; assay type: functional
# Mus musculus [3] = test: Antiinflammatory activity in STZ-induced C57BL/6J mouse of non insulin dependent diabetes mellitus assessed as PPAR-alpha level at 30 mg/kg; assay type: functional
# Mus musculus [4] = test: Antidiabetic activity in STZ-induced Swiss albino mouse assessed as insulin level at 5 microM/kg, ip administered twice daily measured after 21 days (reference value: 88.7%); assay type: functional; conditions: time 21 day, at 5 µmol/kg
# Mus musculus [5] = test: Antidiabetic activity in STZ-induced Swiss albino mouse assessed as inhibition of IFN-gamma level at 5 microM/kg, ip administered twice daily measured after 21 days relative to control; assay type: functional; parameters: scale not given: the % may be the effect or the level left; conditions: time 21 day, at 5 µmol/kg
# Mus musculus [6] = test: Antidiabetic activity in STZ-induced C57BL/6J mouse assessed as increase in insulin sensitivity at 30 mg/kg; assay type: functional
# Mus musculus [7] = test: Antidiabetic activity in STZ-induced Swiss albino mouse assessed as inhibition of NO level at 5 microM/kg, ip administered twice daily measured after 21 days relative to control; assay type: functional; parameters: scale not given: the % may be the effect or the level left; conditions: time 21 day, at 5 µmol/kg
# Mus musculus [8] = test: Antidiabetic activity in STZ-induced Swiss albino mouse assessed as inhibition of IL-1beta level at 5 microM/kg, ip administered twice daily measured after 21 days relative to control; assay type: functional; parameters: scale not given: the % may be the effect or the level left; conditions: time 21 day, at 5 µmol/kg
# Mus musculus [9] = test: Antidiabetic activity in STZ-induced Swiss albino mouse assessed as blood glucose level at 5 microM/kg, ip administered twice daily measured after 21 days (reference value: 220 +/- 7.2mg/dl); assay type: functional; conditions: time 21 day
# [10] = Induction of insulin-sensitizing activity in insulin-resistant human HepG2 cells assessed as increase in glucose consumption at 60 ng/ml relative to control; assay type: functional, insulin-resistant human HepG2 cell
# [11] = Induction of insulin-sensitizing activity in insulin-resistant human HepG2 cells assessed as increase in glucose consumption at 30 ng/ml relative to control; assay type: functional, insulin-resistant human HepG2 cell
# [12] = system: Human immunodeficiency virus; test: Antiviral activity against HIV infected in MT4 cells assessed as viral replication; assay type: functional, organism-based; conditions: Human immunodeficiency virus 1, MT4
# Rattus norvegicus = test: Antidiabetic activity against overnight fasted STZ-induced Wistar rat of type 1 diabetes assessed as increase in insulin level at 1 mg/kg, po by ELISA (reference value: 7.7 +/- 1.0 microIU/mL); assay type: functional
# [13] = Toxicity in STZ-induced Wistar rat of type 1 diabetes assessed as coronary arterial flow rate at 3 mg/kg, ip administered twice daily measured after 4 weeks (reference value: 12.6 +/- 0.5 mL/min); assay type: organism-based; conditions: in vivo, 672 h
compound,measurement,setting,value
CCCCCCCCCCOC/C=C/c1ccc(O)cc1,IC50,PC-3,> 10 µM
same,IC50,MCF7,> 10 µM
O=c1c(O)c(-c2ccc(O)c(O)c2)oc2cc(O)cc(O)c12,FRS50,[1],13.4 µM
O=C(O)/C=C/c1ccc(O)c(O)c1 [CAFFEIC ACID],IC50,[2],32.2 µM
O=C(/C=C/c1ccc(O)c(O)c1)OCCc1ccccc1 [CAFFEIC ACID PHENETHYL ESTER],Activity,Mus musculus [3],38.6%
same,Activity,Mus musculus [4],93.8%
same,Activity,Mus musculus [5],26.3%
same,Activity,Mus musculus [6],20.8%
same,Activity,Mus musculus [7],58.3%
same,Activity,Mus musculus [8],43.2%
same,Activity,Mus musculus [9],137 mg/dL
same,Activity,[10],24.3%
same,Activity,[11],17.1%
Oc1ccc(/C=C/COCCCCCCc2ccccc2)cc1O,IC50,PC-3,1.4 µM
same,IC50,MCF7,2.4 µM
COC(=O)/C=C/c1cc(O)c(O)cc1O,IC50,[2],53.3 µM
CCCCCCCCCCOC/C=C/c1cc(O)c(O)c(O)c1,IC50,PC-3,0.6 µM
same,IC50,MCF7,0.8 µM
COC(=O)/C=C/c1ccc(O)c(O)c1O,IC50,[2],18.6 µM
O=C(/C=C/c1ccc(O)c(O)c1)O[C@@H]1[C@H](O)C[C@@](O)(C(=O)O)C[C@H]1OC(=O)/C=C/c1ccc(O)c(O)c1,FRS50,[1],19.8 µM
CCCCCCCCCCOC/C=C/c1cccc(O)c1,IC50,PC-3,> 10 µM
same,IC50,MCF7,> 10 µM
C[C@@]1(C(=O)O)O[C@H]1COC(=O)/C=C/c1ccc(O)c(O)c1,FRS50,[1],43.8 µM
O=C(/C=C/c1ccc(O)c(O)c1)O[C@H]1[C@H](O)C[C@](O)(C(=O)O)C[C@H]1OC(=O)/C=C/c1ccc(O)c(O)c1,FRS50,[1],23.8 µM
Oc1ccc(/C=C/COCCc2ccccc2)cc1,IC50,PC-3,> 10 µM
same,IC50,MCF7,> 10 µM
Oc1ccc(/C=C/COCCc2ccccc2)cc1O,IC50,PC-3,1.2 µM
same,IC50,MCF7,8 µM
CCCCCCCCCCOC/C=C/c1ccc(O)c(O)c1,IC50,PC-3,0.6 µM
same,IC50,MCF7,1.7 µM
O=C1C=C(Cn2cc(COc3ccc(CO)cc3)nn2)C(=O)C=C1O,IC50,[12],4.2 µM
O=C(/C=C/c1ccc(O)c(O)c1)O[C@@H]1C[C@](O)(C(=O)O)C[C@@H](OC(=O)/C=C/c2ccc(O)c(O)c2)[C@H]1O,FRS50,[1],71.8 µM
CC(=O)/C=C/c1ccc(O)c(O)c1O,IC50,[2],16.8 µM
Oc1ccc(/C=C/COCCCCCCc2ccccc2)cc1,IC50,PC-3,> 10 µM
same,IC50,MCF7,> 10 µM
O=C(/C=C/c1ccc(O)c(O)c1)NCCc1ccccc1 [CAFFEIC ACID PHENETHYL AMIDE],Activity,Rattus norvegicus,14.9 uIU/ml
same,Activity,[13],11.2 mL/min
